This is an account of results in patent US9351947B2, “Use of catecholamines and related compounds as anti-angiogenic agents” (National Research Council of Canada, priority 2007, dated 2016).

The conditions of data set [1]: 58 μg/kg intravenously, dogs; cited from earlier work.
The conditions of data set [2]: topical administration of up to 20%, human eye; cited from earlier work.
For data set [3] the following is noted: humans, cited from earlier work.
For data set [4] the following is noted: mouse, in vivo, iv; cited from earlier work.
For data set [5] the following is noted: 17.6% eye drop, rabbit; cited from earlier work.
The conditions of data set [6]: large intravenous dose; cited from earlier work.
Data set [7] can be described thus: Body weight of rats with eye drop treatment. It is filed as in vivo, Sprague-Dawley rats. The source says:
Prevention of diabetic retinopathy by (S)-isoproterenol […] drop was studied using a rat model. […] Animal weights were monitored every week.

Data set [8] can be described thus: Optical stability (racemization) in eye drop formulations, 10 days at 55° C., chiral HPLC. The conditions noted are these: for % optical purity: 1.7 mg/mL, pH 6.0, starting material 99.90%. It is filed as physicochemical. Here is the method: The optical isomers of (S)-isoproterenol bitartrate and (S)-isoproterenol dipivalate hydrochloride were separated by HPLC using Shiseido chiral CD-Ph column (250×4.6 mm; 5 μm; isocratic 60:40 of 0.5 M sodium perchlorate/water and acetonitrile; flow rate, 1.0 mL/min). The elution profile was monitored by the absorption at 223 nm for isoproterenol bitartrate and 264 nm for isoproterenol dipivalate hydrochloride. The optical impurities were quantitated by the absorbance at 223 nm for isoproterenol bitartrate and 264 nm for isoproterenol dipivalate hydrochloride and by using a curve fitting software TABLECurve2D (Systat). The impurities of (R)-isoproterenol bitartrate and (R)-isoproterenol dipivalate hydrochloride were estimated as […], respectively. Thus, the racemization induced during synthesis and purification was minimal, if it occurred.
Table 2 describes the optical purities of (S)-isoproterenol and (S)-isoproterenol dipivalate after incubation in various eye drop formulations for 10 days at 55° C. and compared with those before incubation. The incubation for 10 days at 55° C. corresponds to the incubation for 167 days at 22° C.

For data set [9] the following is noted: Groups I vs II and III vs IV.
Description: Two-month-old male Sprague-Dawley rats were purchased from Charles River, Canada. They were housed in the Biotechnology Research Institute (BRI)-animal facility. […] Diabetes was induced in male Sprague-Dawley rats weighing approximately 200 to 250 g by a single intraperitoneal injection of the beta-cell toxin, Streptozotocin (STZ) (Sigma, St. Louis, Mich.), at a dose of 60 mg/kg body weight in 0.1M citrate buffer pH 4.5. Non-diabetic control rats received citrate buffer only.
One week following induction of diabetes, glucose levels were determined in the blood sampled from the tail vein using a blood glucose monitoring system (Ascensia ELITE Blood Glucose Meter, Bayer Inc, Toronto, ON, Canada). Since the limit of detection of the blood glucose meter was 33 mM, any value above that has been assigned a maximum value of 35 mM. Only animals with blood glucose levels higher than 15 mM were retained in the study.
Eye drops or vehicle were administered twice a day, seven days a week, on the cornea of different groups of rats, with a minimum interval of 7 h between the two treatments. To promote weight gain and limit hyperglycemia, diabetic rats were injected sub-cutaneously with 2 IU ultralente insulin (Humulin, Eli Lilly, Toronto, ON, Canada) three times a week. Animal weights were monitored every week.
In data set [10] the test system is HUVECs. Put plainly: Matrigel endothelial cell capillary-tube formation assay. It is filed as cell-based, human. On the procedure: HUVECs were purchased from Cedarlane Laboratories (Burlington, Canada) and maintained in Endothelial Cell Basal Medium-2 (EBM-2) supplemented with EGM-2 growth factor mixture (Clonetics) and 2% Foetal bovine serum. The cells were cultured at 37° C. under a humidified 95%/5% (v/v) mixture of air and CO2.
Matrigel endothelial cell tube formation assays were performed using BD Matrigel™ (Becton, Dickinson). BD Matrigel™ was thawed at 4° C., and 150 μL were quickly added to each well of a 48-well plate and allowed to solidify for 60 min at 37° C. HUVECs (7×10^4 cells/mL) In EC basal medium-2 (EBM-2) were seeded 250 μL per well onto the surface of the solid BD Matrigel™ in the presence of the compounds to be tested. The cells were incubated for 22 h at […] in a 5% CO2 incubator. Tube formation was monitored by using a Leitz Labovert (Leitz, Wetzlar, Germany) inverted microscope. Two randomly selected two microscopic fields were photographed with a digital camera (Nikon, COOLPICKS 995). The total length of tube structures in each photograph was measured using ImageJ™ free software (http://rsb.info.nih.gov/ij/) and was normalized to that of control with no test compound. Each reported value represents the average of total six photographs from three independent experiments.

Data set [11] deals with HUVECs. Put plainly: Invasion of HUVECs through Matrigel-coated filter (Matrigel Invasion Chambers). The class given is cell-based, human. Here is the method: HUVECs were purchased from Cedarlane Laboratories (Burlington, Canada) and maintained in Endothelial Cell Basal Medium-2 (EBM-2) supplemented with EGM-2 growth factor mixture (Clonetics) and 2% Foetal bovine serum. The cells were cultured at 37° C. under a humidified 95%/5% (v/v) mixture of air and CO2. Invasion of endothelial cells was measured using BD BioCoatTM Growth Factor Reduced MatrigelTM Invasion Chambers (Beckton-Dickinson; […]). EBM-2 medium (500 μL each) was placed into the lower wells. HUVECs (2.5×10^4) in EBM-2 serum-free medium (500 μL) were seeded into each of the upper wells and incubated in the presence of a test compound. HUVECs were allowed to migrate for 36 h at 37° C. in an atmosphere of 95% air/5% CO2. HUVECs that remained on the upper surface of the filter were removed using a cotton swab. HUVECs that had migrated to the lower surface of the filters were fixed with methanol, stained with 0.1% crystal violet/20% (v/v) methanol and examined using a Leitz Labovert (Leitz, Wetzlar, Germany) inverted microscope after mounting on a slide. Three randomly selected microscopic fields were digitally captured using a Nikon […] 995 digital camera and the number of HUVECs in each photograph were directly counted. Each reported value represents the average and standard deviation of a total […] from two independent experiments.

In the case of `CC(C)NCC(O)c1ccc(OC(=O)C(C)(C)C)c(OC(=O)C(C)(C)C)c1` (racemic) [(R,S)-isoproterenol dipivalate], in [1], the cardiovascular responses entry was “the same responses as those of (R,S)-isoproterenol”.

As to `CC(C)NC[C@@H](O)c1ccc(O)c(O)c1.Cl` [(S)-isoproterenol hydrochloride], the “lowering of intra-ocular pressure” value in data set [2] was “did not show any indication to lower intra-ocular pressure”.

As to `CC(C)NC[C@@H](O)c1ccc(O)c(O)c1` [(S)-isoproterenol], the “side effects of topically applied 10% solution” value in [3] (10%, topical) is “brief mild conjunctival hyperemia and irritation”. Moreover, the “side effects of 20% eye drop” value in data set [3] (20% eye drop) is “marked conjunctival hyperemia and mild miosis that persisted for several hours”. Further, the 50% lethal dose (LD50) in [4] was 113 ± 5 mg/kg. Besides, the “systemic effects (heart rate, blood pressure, hematologic or serum chemistry values, necropsy)” value in [5] was “no systemic effects”. Besides, the “effects on blood pressure and pulse rate” value in data set [6] was “only slight and transient effects”. For the same compound, the “effect on weight gain/loss” value is reported as “no effect” in data set [7] (diabetic rats, Group IV vs Group III) and “no effect” in [7] (non-diabetic rats, Group II vs Group I). For the same compound, the “conversion to the (R)-isoform” value in data set [8] (10 days at 55° C.) is 2.55%. Moreover, the “% optical purity” value amounted to 96.68% in data set [8] (10 days at 55° C., NaCl 8 mg/mL, Benzalkonium chloride 0.04 mg/mL, Tween 80 2.5 mg/mL); 97.90% in data set [8] (10 days at 55° C., Povidone 2 mg/mL, Benzalkonium chloride 0.04 mg/mL, D-Mannitol 54.7 mg/mL); 97.56% in data set [8] (10 days at 55° C., Povidone 2 mg/mL, D-Mannitol 54.7 mg/mL, Chlorobutanol 1 mg/mL, 2-hydroxypropyl cyclodextrin 10.1 mg/mL); 97.26% in data set [8] (10 days at 55° C., Povidone 2 mg/mL, NaCl 8 mg/mL, Benzalkonium chloride 0.04 mg/mL, 2-hydroxypropyl cyclodextrin 10.1 mg/mL). For the same compound, the “average optical purity after incubating 10 days at 55° C.” value in data set [8] (average over the eye drop formulations) is recorded as 97.35±0.52%. In data set [8] (extrapolated, from 99.90%), the “optical purity after 655 days of storage at room temperature” value is given as 90%. Moreover, the “effect on the blood glucose level and diabetes” value in data set [9] is recorded as “does not affect”. Further, the “anti-angiogenic activity at 95% w/w optical purity” value in the data set with HUVECs [10] (95% w/w optically pure, total isoproterenol 20 μM, FIG. 3) is given as “in the transition from non-antianglogenic to anti-angiogenic”. Further, in the data set with HUVECs [10] (angiogenic assay condition used in FIG. 1, 1-50 μM, 22 h), the “potency (inhibition of capillary tube formation)” value is given as “around 10 μM”. Besides, the “Activity (anti-angiogenicity)” value in the data set with HUVECs [10] (measured at 20 μM, HUVECs on Matrigel, 22 h) was “anti-angiogenic activity”. Also, the “optical purity of (S)-isoproterenol at which anti-angiogenic activity was observed” value in the data set on HUVECs [10] (various ratios of (S)- and (R)-isoproterenol, total 20 μM, FIG. 3) is “at least 97 % w/w”. The “reduction of the invasion of HUVECs in Matrigel” value in the data set on HUVECs [11] (20 μM) came out at 60%. Besides, the “Activity (anti-invasion)” value in the data set on HUVECs [11] (measured at 20 μM, HUVECs) is on record as “Anti-invasive”.
